Data published in paper PMC4491109, “Synthesis and anticonvulsant activity of new N-phenyl-2-(4-phenylpiperazin-1-yl)acetamide derivatives” (Medicinal Chemistry Research, 2015).
Where two headings read alike, the source gives them in different places.

Legend:
[1] = tested on: maximal electroshock (MES) seizures; test: Maximal electroshock (MES) test, i.p. administration in mice; assay type: in vivo; conditions: Mus musculus, ip, doses of 30, 100 or 300 mg/kg
Procedure: (§1) Considering the aforementioned facts, the profile of anticonvulsant activity of final compounds 3–24 was established in the MES and scPTZ tests, after intraperitoneal (i.p.) injection in mice at doses of 30, 100 and 300 mg/kg. An observation was carried out at two different time intervals—0.5 and 4 h. Furthermore, in addition to the primary anticonvulsant screening, the acute neurological toxicity (NT) was determined in mice by the rotarod test.
(§2) Compounds 3–24 were pharmacologically preevaluated within the Antiepileptic Drug Development (ADD) Program in Epilepsy Branch, Neurological Disorders Program, National Institute of the Neurological and Communicative Disorders and Stroke (NIH/NINDS), Rockville, MD, USA, by using procedures described elsewhere (Krall et al., [1978]; Kupferberg, [1989]).
(§3) Phase I of the in vivo studies involved three tests: MES, scPTZ and rotarod test for NT. Male albino mice (CF#1 strain, weighing 18–25 g) and male albino rats (Sprague–Dawley) were used as experimental animals. The animals were housed in metabolic cages and allowed free access to food and water. The compounds were injected intraperitoneally to mice as a suspension in 0.5 % methylcellulose/water mixture at a dose level 30, 100 or 300 mg/kg with anticonvulsant activity and neurotoxicity assessment at 0.5 and 4 h after administration. Promising derivatives from phase I underwent phase VIa in which they were administrated orally into rats at a fixed dose of 30 mg/kg for both MES and the rotarod toxicity determination at five pretreatment times: 0.25, 0.5, 1, 2, 4 h. Groups of eight mice or four rats are employed.
(§4) In the MES screen, an electrical stimulus of 0.2 s in duration (50 mA in mice and 150 mA in rats) is delivered via corneal electrodes primed with an electrolyte solution containing an anesthetic agent. The endpoint is the tonic extension of the hind limbs. In the control groups, the procedures cause immediate hind limb tonic extension. Mice not displaying hind limb tonic extension are considered to be protected from seizures.

[2] = tested on: pentylenetetrazole-induced seizures; test: Subcutaneous pentylenetetrazole (scPTZ) test, i.p. administration in mice; assay type: in vivo; conditions: Mus musculus, ip, doses of 30, 100 or 300 mg/kg
Procedure: as §1, §2, §3
(§5) The scPTZ test utilizes a dose of pentylenetetrazole (85 mg/kg in mice) that produces clonic seizures lasting for a period of at least 5 s in 97 % (CD97) of animals tested. PTZ is administered 0.5 and 4 h after injections of tested compounds, and observation is carried out for 30 min. In the control groups, the first episode of clonic convulsions is observed between 6 and 15 min of observation. The absence of clonic convulsions in the observed time period of […] is interpreted as the compound’s ability to protect against PTZ-induced seizures.

mice (rotarod test) = test: Neurotoxicity screening (NT), rotarod test, i.p. administration in mice; assay type: in vivo; conditions: for dose showing neurotoxicity in the rotarod test (NT): ip
Procedure: as §1, §3
The neurological toxicity test (NT) induced by a compound was detected in mice or rats using standardized rotarod test (Dunham and Miya, [1957]). Untreated control mice or rats, when placed on the rod, can maintained their equilibrium for a prolonged time period.

[3] = tested on: 6-Hz psychomotor seizures; test: Psychomotor seizure test (6-Hz), i.p. in mice; assay type: in vivo; conditions: 100 mg/kg; for 6-Hz, number of mice protected/number of mice tested, 0.25 h / 6-Hz, number of mice protected/number of mice tested, 0.5 h / 6-Hz, number of mice protected/number of mice tested, 1 h / 6-Hz, number of mice protected/number of mice tested, 2 h / 6-Hz, number of mice protected/number of mice tested, 4 h: current 32 mA
Excerpt: In the next step of pharmacological investigations, four compounds 12, 19, 20 and 24 were chosen for the evaluation of anticonvulsant activity in the psychomotor 6-Hz test (Table 4). The selection was made randomly as a part of the search of molecules providing anti-6-Hz protection among chemically diversified compounds pursued in the NIH/NINDS. It should be noticed that 6-Hz screen has been validated as a model of therapy-resistant epilepsy (Barton et al., [2001]).
The 6-Hz model is an alternative electroshock paradigm that uses low-frequency (6 Hz), long-duration (3 s) electrical stimulation. Corneal stimulation (0.2 ms duration monopolar rectangular pulses at 6-Hz for 3 s) was delivered by a constant-current device. During the stimulation, mice were manually restrained and released into the observation cage immediately after the current application. The seizures manifest in “stunned” posture associated with rearing, forelimb, automatic movements and clonus, twitching the vibrissae and Straub–tail. The duration of the seizure activity ranges from 60 to 120 s in untreated animals. At the end of the seizure, animals resume their normal exploratory behavior. The experimental end point is protection against the seizure. The animal is considered to be protected if it resumes its normal exploratory behavior within 10 s from the stimulation (Brown et al., [1953]).

[4] = tested on: maximal electroshock (MES) seizures; test: MES test after oral administration in rats (screen and quantification); assay type: in vivo; conditions: for PI (TD50/ED50), MES: protective index for MES; for ED50: Rattus norvegicus, po, at TPE, 95 % confidence limits in parentheses
Procedure: This screen discloses the time of onset, the approximate time of peak effect (TPE) and the duration of anticonvulsant activity or neurotoxicity.
The quantitative evaluation of the MES median effective dose (ED50) and toxic dose (TD50) was performed at previously estimated TPE—2 h.
as §3
as §4, with “In the control groups, the procedures cause immediate hind limb tonic extension.” left out

[5] = tested on: pentylenetetrazole-induced seizures; test: scPTZ test after p.o. administration in rats (quantification); assay type: in vivo; conditions: for ED50: Rattus norvegicus, po, at TPE, 95 % confidence limits in parentheses
Procedure: On the basis of the preliminary data in rats, compound 20 was chosen for quantification of the pharmacological parameters (ED50 and TD50) after p.o. application. The quantitative evaluation of the MES median effective dose (ED50) and toxic dose (TD50) was performed at previously estimated TPE—2 h.
as §5

rats (rotarod test) = test: Neurotoxicity, rotarod test after p.o. administration in rats; conditions: at TPE, 95 % confidence limits in parentheses
in vivo = conditions: male, Sprague-Dawley, rat, po
MES seizures = tested on: MES seizures; parameters: method as in Rogawski, 2006; conditions: even at high doses, ref Rogawski, 2006; cited from earlier work
PTZ seizures = tested on: PTZ seizures; parameters: method as in Rogawski, 2006; conditions: even at high doses, ref Rogawski, 2006; cited from earlier work
[6] = tested on: 6-Hz psychomotor seizures; parameters: method as in Rogawski, 2006; conditions: ref Rogawski, 2006; cited from earlier work
[7] = 0.5 h, read-out: MES, minimum dose effective in half or more animals tested, 0.5 h
[8] = 4 h, read-out: MES, minimum dose effective in half or more animals tested, 4 h
[9] = 0.5 h, read-out: scPTZ, minimum dose effective in half or more animals tested, 0.5 h
[10] = 4 h, read-out: scPTZ, minimum dose effective in half or more animals tested, 4 h

Compound | minimal effective dose [1, 7] | minimal effective dose [1, 8] | minimal effective dose [2, 9] | minimal effective dose [2, 10] | NT (rotarod), minimum dose neurotoxic in half or more animals tested, 0.5 h (mice (rotarod test); male, CF#1, mouse, in vivo) | dose showing neurotoxicity in the rotarod test (NT) (mice (rotarod test); male, CF#1, mouse, in vivo) | 6-Hz, number of mice protected/number of mice tested, 0.25 h [3] | 6-Hz, number of mice protected/number of mice tested, 0.5 h ([3]; 0.5 h) | 6-Hz, number of mice protected/number of mice tested, 1 h ([3]; 1 h) | 6-Hz, number of mice protected/number of mice tested, 2 h ([3]; 2 h) | 6-Hz, number of mice protected/number of mice tested, 4 h [3] | PI (TD50/ED50), MES ([4]; p.o.) | MES, number of rats protected/number of rats tested, 0.25 h ([4]; p.o., 30 mg/kg) | MES, number of rats protected/number of rats tested, 0.5 h ([4]; p.o., 30 mg/kg) | MES, number of rats protected/number of rats tested, 1 h ([4]; p.o., 30 mg/kg) | MES, number of rats protected/number of rats tested, 2 h ([4]; p.o., 30 mg/kg, 2 h) | MES, number of rats protected/number of rats tested, 4 h ([4]; p.o., 30 mg/kg) | further results
Cl.O=C(CN1CCOCC1)Nc1cccc(C(F)(F)F)c1 [Compound 24, 2-Morpholino-N-[3-(trifluoromethyl)phenyl]acetamide monohydrochloride] | 100 mg/kg | > 300 mg/kg | > 300 mg/kg | > 300 mg/kg | 100 mg/kg | 100 mg/kg | 4/4 | 2/4 | 3/4 | 0/4 | 0/4 |  |  |  |  |  |  | 6-Hz, % of animals protected, 0.25 h [3]: 100%; 6-Hz, % of animals protected, 0.5 h ([3]; 0.5 h): 50%; 6-Hz, % of animals protected, 1 h ([3]; 1 h): 75%
CCCC(CCC)C(=O)O [Valproic acid] |  |  |  |  |  |  |  |  |  |  |  | 1.6 |  |  |  |  |  | ED50 [5]: 646 mg/kg; PI (TD50/ED50), scPTZ ([5]; protective index for scPTZ): 1.2; TD50 NT (rotarod) (rats (rotarod test)): 784 (503–1176) mg/kg
O=C1NC(=O)C(c2ccccc2)(c2ccccc2)N1 [Phenytoin, reference compound] | 30 mg/kg | 30 mg/kg | > 300 mg/kg | > 300 mg/kg | 100 mg/kg |  |  |  |  |  |  | >3.6 (MES) | 1/4 | 4/4 | 3/4 | 3/4 | 3/4 | NT (rotarod), minimum dose neurotoxic in half or more animals tested, 4 h (mice (rotarod test); male, CF#1, mouse, in vivo, 4 h): 100 mg/kg; ED50 [4]: 28.1 mg/kg; ED50 [5]: > 500 mg/kg; TD50 at 2 h (in vivo): > 100 mg/kg
Cl.O=C(CN1CCN(c2cccc(C(F)(F)F)c2)CC1)Nc1cccc(C(F)(F)F)c1 [Compound 20, N-[3-(Trifluoromethyl)phenyl]-2-[4-[3-(trifluoromethyl)phenyl]piperazin-1-yl]acetamide monohydrochloride] | > 300 mg/kg | 100 mg/kg | > 300 mg/kg | > 300 mg/kg |  |  | 1/4 | 0/4 | 0/4 | 1/4 | 1/4 | >9.56 (MES) | 0/4 | 1/4 | 0/4 | 2/4 | 0/4 | ED50 [4]: 52.3 mg/kg; MES, % of animals protected, 2 h ([4]; p.o., 30 mg/kg, 2 h): 50%; 6-Hz, % of animals protected, 0.25 h [3]: 25%; 6-Hz, % of animals protected, 2 h ([3]; 2 h): 25%; 6-Hz, % of animals protected, 4 h [3]: 25%; TD50 at 2 h (in vivo): > 500 mg/kg
O=C(CN1CCN(Cc2ccccc2)CC1)Nc1cccc(C(F)(F)F)c1 [Compound 22, 2-(4-Benzylpiperazin-1-yl)-N-[3-(trifluoromethyl)phenyl]acetamide] | 300 mg/kg | > 300 mg/kg | > 300 mg/kg | > 300 mg/kg | 300^33 mg/kg |  |  |  |  |  |  |  | 1/4 | 1/4 | 1/4 | 1/4 | 1/4 | response comment (adverse sign observed) (mice (rotarod test); mice, i.p., 300 mg/kg): tremors
Cl.O=C(CN1CCOCC1)Nc1cccc(Cl)c1 [Compound 13, N-(3-chlorophenyl)-2-morpholino-acetamide monohydrochloride] | 100 mg/kg | 300 mg/kg | > 300 mg/kg | > 300 mg/kg | 300 mg/kg | 300 mg/kg |  |  |  |  |  |  | 0/4 | 1/4 | 0/4 | 0/4 | 0/4 | 
CC[C@@H](C(N)=O)N1CCCC1=O [levetiracetam] |  |  |  |  |  |  |  |  |  |  |  |  |  |  |  |  |  | activity against classical MES seizures (in words) (MES seizures): inactive; activity against classical PTZ seizures (in words) (PTZ seizures): inactive; effectiveness in the 6-Hz psychomotor seizure model (in words) [6]: high effectiveness
Cl.O=C(CN1CCN(c2ccc(F)cc2)CC1)Nc1cccc(C(F)(F)F)c1 [Compound 19, 2-[4-(4-Fluorophenyl)piperazin-1-yl]-N-[3-(trifluoromethyl)phenyl]acetamide monohydrochloride] | 300 mg/kg | 100 mg/kg | > 300 mg/kg | > 300 mg/kg | 300 mg/kg | 300 mg/kg | 0/4 | 0/4 | 0/4 | 0/4 | 1/4 |  |  |  |  |  |  | 6-Hz, % of animals protected, 4 h [3]: 25%
